Where two headings read alike, the source gives them in different places.
How the values were obtained:
[1] = test system: RNA Polymerase II Serine 5 phosphorylation in A549 cells overexpressing CDK7-mutant (C312S); assay: Imaging-based cellular RNA PolII Ser5 phosphorylation assay in A549 cells overexpressing CDK7-mutant (C312S); type: cell-based, human; conditions: RNA PolII Ser5 phosphorylation, averaged over all measurements; for IC50: Homo sapiens, A549, A549 cells overexpressing CDK7-mutant (C312S), read-out: CDK7_A549 mutant hCDK7(pIC50) (converted); for CDK7_A549 mutant hCDK7(pIC50): A549 cells overexpressing CDK7-mutant (C312S)
Text: (§1) To evaluate inhibition of CDK7 kinase activity, a 384-well automated imaging assay was used. This assay detects Serine 5 phosphorylation on a unique heptapeptide sequence in the C-terminal domain of Rpb1 subunit of RNA polymerase II, the downstream substrate of CDK7. This heptapeptide sequence is repeated up to 52 times in the CTD of Rpb1.
(§2) A549 adenocarcinoma human alveolar basal epithelial cells (ATCC, CCL-185), rabbit Phospho-Rpb1 CTD (Ser5) antibody (D9N51 (Cell Signaling Technology)), DMEM (Sigma), Fetal Bovine Serum (Biowest), L-glutamine (Sigma), Penicillin/Streptomycin (Life Technologies), Sodium Pyruvate (Sigma), Hepes (Sigma), poly-D-lysine coated μclear 384 black plates (Greiner), formaldehyde (PolySciences), D-PBS (Sigma), Methanol (Sigma), Alexa Fluor 488 goat anti rabbit IgG secondary antibody (Life Technologies), HCS CellMask™ Deep Red stain (Life Technologies), Hoechst 33258 (Invitrogen).
(§3) RNA Polymerase II Serine 5 phosphorylation was detected using a specific rabbit Phospho-Rpb1 CTD (Ser5) antibody. A549 adenocarcinoma human alveolar basal epithelial cells were seeded in 20 μl medium (DMEM supplemented with 1% Fetal Bovine Serum (heat inactivated 30′ 56° C.), 2 mM L-glutamine, 50 U/ml penicillin 50 μg/ml streptomycin, 1 mM sodium pyruvate and 50 mM hepes) at 1000 cells/well and cultured in poly-D-lysine coated μclear 384 black plates for 20 hours at 37° C. and 5% CO2.
(§4) After incubation cells were challenged with compound for 3 hours at 37° C. and 5% CO2. DMSO was used as high control and as low control 10 μM of the following reference compound was used:
(§5) 40 nl of test compounds and controls were spotted in cell plates using Echo Liquid Handler (Echo 550, Labcyte). Incubation was followed by 20 minutes fixation with 20 μl 10% formaldehyde at room temperature. Medium/formaldehyde solution was removed, plates were washed 3 times with 30 μl D-PBS (w/o Ca^2+ and Ma^2+) and permeabilization was done by adding 20 μl ice cold methanol for 20 minutes. Cells were washed again 3 times with 30 μl D-PBS and 20 μl blocking buffer (25 ml fetal bovine serum in 500 ml D-PBS) was added for 1 hour.
(§6) After removing blocking buffer 20 μl 1/1000 primary antibody rabbit Phospho-Rpb1 CTD (Ser5) antibody was added which binds to the phosphorylated Serine5 of the heptapeptide sequences in the CTD of Rpb1. Primary antibody was removed, and plates were washed 3 times with 30 μl D-PBS followed by addition of 20 μl 1/2000 Alexa Fluor 488 goat anti rabbit IgG secondary antibody for final detection of Phospho-Rpb1 CTD (Ser5) together with 1/5000 HCS CellMask™ Deep Red stain for membrane staining and 1/5000 Hoechst 33258 for nucleus staining. Last, plates were washed 2 times with 30 μl D-PBS and wells were filled with 40 μL D-PBS, plates were sealed (Thermowell sealing tape) and stored at 4° C. until reading. Plates were read with Opera Phenix (Perkin Elmer) with 10× air objective. Data were calculated and analyzed in Phaedra.
(§7) IC50 values were calculated using the following formula: […]
(§8) Average value of all HC's and all LC's are used for normalizations.
(§9) A best-fit curve is fitted by a minimum sum of squares method to the plot of % Control vs. compound concentration. From this an IC50 value can be obtained. An estimate of the slope of the plot in terms of the Hill coefficient is also obtained.
In parallel this assay was performed in A549 cells overexpressing CDK7-mutant (C312S) to evaluate the effect of the covalent bond on potency and to screen for potential off-target effects. Mutation of Cysteine to Serine (C312S), a less nucleophilic amino acid, prevents CDK7 inhibitors from covalently binding to CDK7 and from inhibiting CDK7 activity in an irreversible manner. A stably transduced A549 cell pool was generated that overexpresses CDK7 mutant (C312S), but also expresses endogenous CDK7-WT. Covalent binders targeting the cysteine at position 312 will show a shift in potency in A549 cells overexpressing mutant C312S CDK7.

[2] = test system: RNA Polymerase II Serine 5 phosphorylation (Rpb1 CTD, downstream substrate of CDK7) in A549 cells; assay: Imaging-based cellular RNA PolII Ser5 phosphorylation assay in A549 cells; type: cell-based, human; conditions: wild-type CDK7, RNA PolII Ser5 phosphorylation, averaged over all measurements; for IC50: Homo sapiens, A549, A549 cells, read-out: CDK7_A549 Wild-type CDK7 (pIC50) (converted); for CDK7_A549 Wild-type CDK7 (pIC50): A549 cells
Text: as §1, §2, §3, §4, §5, §6, §7, §8, §9

[3] = molecular target: CDK7/cyclinH/MAT1 trimeric complex (Homo sapiens, UniProt P50613); assay: In vitro CDK7 assay, potency of irreversible covalent inhibitors (kinact/KI), coupled PK/LDH ADP readout at 340 nm
Sequence of CDK7/cyclinH/MAT1 trimeric complex (P50613 whole entry): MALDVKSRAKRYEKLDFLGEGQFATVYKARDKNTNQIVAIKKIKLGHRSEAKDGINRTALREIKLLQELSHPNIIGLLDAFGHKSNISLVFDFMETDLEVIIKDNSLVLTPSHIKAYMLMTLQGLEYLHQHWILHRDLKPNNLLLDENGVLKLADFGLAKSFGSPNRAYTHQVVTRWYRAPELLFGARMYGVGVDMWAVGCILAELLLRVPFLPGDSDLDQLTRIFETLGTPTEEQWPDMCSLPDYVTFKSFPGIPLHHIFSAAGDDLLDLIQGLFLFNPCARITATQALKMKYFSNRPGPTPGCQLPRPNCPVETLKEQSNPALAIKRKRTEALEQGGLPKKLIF
Sequence of CDK7/cyclinH/MAT1 trimeric complex (P51946 whole entry partner): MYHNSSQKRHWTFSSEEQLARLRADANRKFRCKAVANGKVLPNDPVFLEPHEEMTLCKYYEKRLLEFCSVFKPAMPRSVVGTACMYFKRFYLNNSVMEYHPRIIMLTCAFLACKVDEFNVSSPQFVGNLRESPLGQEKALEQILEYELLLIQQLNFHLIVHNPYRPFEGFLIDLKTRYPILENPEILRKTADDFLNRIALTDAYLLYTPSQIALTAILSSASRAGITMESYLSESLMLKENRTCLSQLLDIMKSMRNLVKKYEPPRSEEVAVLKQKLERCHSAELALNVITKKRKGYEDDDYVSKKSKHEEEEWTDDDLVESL
Sequence of CDK7/cyclinH/MAT1 trimeric complex (P51948 whole entry partner): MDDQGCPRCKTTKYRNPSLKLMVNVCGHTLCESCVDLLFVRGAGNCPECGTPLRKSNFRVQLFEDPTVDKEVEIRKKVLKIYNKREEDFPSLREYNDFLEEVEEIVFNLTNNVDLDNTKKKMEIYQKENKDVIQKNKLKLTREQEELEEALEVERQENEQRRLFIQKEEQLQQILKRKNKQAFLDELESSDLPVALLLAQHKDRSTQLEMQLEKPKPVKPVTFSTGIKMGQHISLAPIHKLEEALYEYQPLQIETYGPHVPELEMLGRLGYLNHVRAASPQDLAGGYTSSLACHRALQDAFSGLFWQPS

[4] = CDK7 (20 nM enz.) (KI, μM), 20 nM enzyme
[5] = read-out: CDK7 (20 nM enz.) (kinact, s^−1), 20 nM enzyme
[6] = read-out: CDK7 (20 nM enz.) (kinact/KI, M^−1*s^−1), 20 nM enzyme

| SMILES | IC50 [1] [µM] | IC50 [2] [µM] | other results |
| --- | --- | --- | --- |
| C#CCCN(C)C/C=C/C(=O)N1CC(N2CCC(c3cc(Cl)c4c(c3)Nc3nccc(N5CCOCC5)c3CO4)CC2)C1 [Compound 168] | > 10 | 0.0776 | – |
| C=CC(=O)N1CCC(Cc2ccc3c(c2)Nc2nccc(-c4cncc(C)c4)c2CO3)C1 (stereo not shown) [Compound 5] | > 10 | > 10 | – |
| CC#CC(=O)N1CC(N2CC[C@H](c3cc4c(c(C)n3)O[C@H](C)c3c(N5CCOCC5)ccnc3N4)C2)C1 (single isomer, unassigned) [Compound 397] | > 10 | > 10 | – |
| CC#CC(=O)N1CC(N2CCC(c3cc4c(c(C)n3)OCc3c(-c5cnn(C)c5)ccnc3N4)CC2)C1 [Compound 538] | – | – | CDK7_A549 mutant hCDK7(pIC50) [1]: <5; CDK7_A549 Wild-type CDK7 (pIC50) [2]: 6.49 |
| CC#CC(=O)N1CCC(N2CC(c3cc4c(c(C#N)n3)O[C@H](C)c3c(N5CCOCC5)ccnc3N4)C2)CC1 (single isomer, unassigned) [Compound 544] | > 10 | 2.95 | – |
| C=CC(=O)N1CC(N2CCOC(c3ccc4c(c3)OCc3c(N5CCOCC5)ccnc3N4)C2)C1 (stereo not shown) [Compound 266] | > 10 | ~10.2 | – |
| C=CC(=O)N1CCC(N2CC[C@H](O)[C@@H](c3ccc4c(c3)OCc3c(N5CCOCC5)ccnc3N4)C2)CC1 (mixture of isomers) [Compound 157] | > 10 | > 10 | – |
| C=CC(=O)N1CC(N2CCC(c3ccc4c(c3)Nc3nccc(N5CCOCC5)c3CO4)C(C)(C)C2)C1 (stereo not shown) [Compound 41] | – | – | Ki ([3]; CDK7 (KI(μM)), […], 1 mM ATP, room temperature, averaged values over all measurements): 0.083 µM; kinact ([3]; read-out: CDK7 (kinact, s^−1), kinact = maximal rate of inactivation, 1 mM ATP, room temperature, averaged values over all measurements): 8.37e-05 s⁻¹; kinact/KI ([3]; read-out: CDK7 (kinact/KI, M^−1*s^−1), potency of irreversible covalent inhibitors, 1 mM ATP, room temperature, averaged values over all measurements): 1010 M⁻¹ s⁻¹ |
| CC#CC(=O)N1CC(N2CC(c3cc4c(c(C)n3)O[C@@H](C)c3c(N5CCOCC5)ccnc3N4)C2)C1 (single isomer, unassigned) [Compound 356] | > 10 | 7.76 | – |
| C=CC(=O)N1CC(N2CCC(c3cc4c(cn3)O[C@@H](C)c3c(N5CCOCC5)ccnc3N4)CC2)C1 (single isomer, unassigned) [Compound 172] | – | – | Ki [3, 4]: 1.4 µM; kinact [3, 5]: 5.53e-05 s⁻¹; kinact/KI [3, 6]: 39.4 M⁻¹ s⁻¹ |
| CC#CC(=O)N1CC[C@H](N2CC(c3cc4c(c(C)n3)O[C@@H](C)c3c(N5CCOCC5)ccnc3N4)C2)C1 (single isomer, unassigned) [Compound 512] | > 10 | – | CDK7_A549 Wild-type CDK7 (pIC50) [2]: 7.56 |
| C=CC(=O)N1CC(N2CCC(c3cc4c(cn3)O[C@H](C)c3c(N5CCOCC5)ccnc3N4)CC2)C1 (single isomer, unassigned) [compound 171] | – | – | Ki [3, 4]: 0.0278 µM; kinact [3, 5]: 5.15e-05 s⁻¹; kinact/KI [3, 6]: 1850 M⁻¹ s⁻¹ |
| C=CC(=O)N1CCC(Cc2ccc3c(c2)Nc2nccc(-c4cnccc4C)c2CO3)C1 (stereo not shown) [Compound 6] | > 10 | ~9.33 | – |
| C=CC(=O)N1CCC(n2ccc(-c3cc4c(c(C)n3)OCc3c(N5CCOCC5)ccnc3N4)cc2=O)CC1 [compound 419] | – | – | Ki [3, 4]: 0.273 µM; kinact [3, 5]: 3.95e-05 s⁻¹; kinact/KI [3, 6]: 144 M⁻¹ s⁻¹ |
| C=CC(=O)N1CC(N2CCC(c3ccc4c(c3)Nc3nccc(C5CCOCC5)c3CO4)CC2)C1 [Compound 254] | – | – | CDK7_A549 mutant hCDK7(pIC50) [1]: <5; CDK7_A549 Wild-type CDK7 (pIC50) [2]: 6.97 |

Source: US20240254138A1, “TRICYCLIC PYRIMIDINES AS CYCLIN-DEPENDENT KINASE 7 (CDK7) INHIBITORS” (JANSSEN PHARMACEUTICA NV, priority 2021, published 2024)
